Here are results for nine molecules from patent publication US11325929B2 (VivaVisionShanghaiLtd, priority 2017, dated 2022).

Molecules are shown by their SMILES. pEC50: −log10 of the molar value.

The subject of the experiment is human T lymphocyte strain Jurkat (ATCC TIB-152) adhesion to ICAM-1. As to the kind of experiment: T-cell adhesion assay (Jurkat cells on ICAM-1 coated plates). The format is cell-based. Conditions: Homo sapiens; BCECF-AM labelled Jurkat cells, ICAM-1 coated plate, fluorescence readout; read-out: EC50 of cell adhesion and inhibition. How it is done:
Cell Adhesion Inhibition Experiments:
T-cell adhesion assay was performed using human T lymphocyte strain Jurkat (ATCC TIB-152): goat Anti-Human IgG (Fc specific) (Sigma 18885) was diluted to 10 μg/ml in PBS, incubated 100 μL per well/96 well plate at 4° C. for 12 hours. Liquid in the well plate was poured off, blocked with 200 μL of 1% BSA at 37° C. for 90 minutes, and washed three times with PBS. 50 μL of 1 μg/mL ICAM-1 (containing 0.1% BSA, 0.01% Tween 20) was added to each well and incubated at 37° C. for 3 hours. The plate was washed 3 times with assay buffer (20 mM HEPES pH 7.6, 140 mM NaCl, 1 mM MgCl2, 1 mM MnCl2, 0.2% glucose).
The Jurkat […] was centrifuged at 100-G, and cells were resuspended in an assay buffer (20 mM HEPES pH 7.6, 140 mM NaCl, 1 mM MgCl2, 1 mM MnCl2, 0.2% glucose) at 37° C.
2 μl of 1 mM of BCECF-AM per mL of the cell suspension was added. Incubated at 37° C. for 30 minutes, stirred up every 10 minutes during the incubation. After the incubation, the cells were washed with assay buffer at 37° C. The cells were suspended to a concentration of 6×10^6/mL.
The inhibitor was diluted to a final concentration of 2× in assay buffer, and 50 μL of the compound solution and […] of Jurkat cells were mixed at room temperature, and incubated at 37° C. for 30 minutes. 100 μL/well of cells and inhibitors were added to the plate and incubated for 1 hour at room temperature. The total fluorescence was measured by a fluorometer: ex: 485; em: 530; cutoff: 530 to measure the total fluorescence. The plate was washed once with the assay buffer and the fluorescence was measured with a fluorometer: ex: 485; em: 530; cutoff. The results are plotted as inhibition-concentration plots and EC50 is calculated using standard methods.

For the molecule `CS(=O)(=O)c1cccc(C[C@H](NC(=O)c2c(Cl)cc(C#CP(=O)(O)c3ccc4ccoc4c3)cc2Cl)C(=O)O)c1` [Example 49], the pEC50 is 7.97. Then `CS(=O)(=O)c1cccc(C[C@H](NC(=O)c2c(Cl)cc(C(O)CP(=O)(O)c3cccc(O)c3)cc2Cl)C(=O)O)c1` (stereo partly drawn) [Example 50, (2s)-2-(2,6-dichloro-4-(1-hydroxy 2-(hydroxy(3-hydroxyphenyl)phosphoryl)ethyl)benzamido)-3-(3-(methylsulfonyl)phenyl)propionic Acid], with 7.80; and `CS(=O)(=O)c1cccc(C[C@H](NC(=O)c2c(Cl)cc(/C=C/P(=O)(O)c3cccc(O)c3)cc2Cl)C(=O)O)c1` [Example 51, (2s)-2-(2,6-dichloro-4-(2-(hydroxy(m-hydroxyphenyl)phosphoryl)vinyl)benzamido)-3-(3-(methylsulfonyl)phenyl)propionic Acid], with 8.38; and `CS(=O)(=O)c1cccc(C[C@H](NC(=O)c2c(Cl)cc(/C=C/P(=O)(c3cccc(O)c3)c3cccc(O)c3)cc2Cl)C(=O)O)c1` [Example 52, (S,E)-2-(4-(2-(bis(3-hydroxyphenyl)phosphonyl)vinyl)-2,6-dichlorobenzamido)-3-(3-(methylsulfonyl)phenyl)propionic Acid], with 7.13. As for `CS(=O)(=O)c1cccc(C[C@H](NC(=O)c2c(Cl)cc(CCP(=O)(c3cccc(O)c3)c3cccc(O)c3)cc2Cl)C(=O)O)c1` [Example 53, (S,E)-2-(4-(2-(bis(3-hydroxyphenyl)phosphonyl)ethyl)-2,6-dichlorobenzamido)-3-(3-(methylsulfonyl)phenyl)propionic Acid], the pEC50 is 7.66. In the case of `CCOP(=O)(/C=C/c1cc(Cl)c(C(=O)N[C@@H](Cc2cccc(S(C)(=O)=O)c2)C(=O)O)c(Cl)c1)c1ccc(O)cc1` (stereo partly drawn) [Example 54], the pEC50 is 8.02. In the case of `CC(C)P(=O)(CCc1cc(Cl)c(C(=O)N[C@@H](Cc2cccc(S(C)(=O)=O)c2)C(=O)O)c(Cl)c1)c1cccc(O)c1` (stereo partly drawn) [Example 56], the pEC50 was 7.20.

On to `CS(=O)(=O)c1cccc(C[C@H](NC(=O)c2c(Cl)cc(/C=C/P(=O)(c3cccc(O)c3)C3CC3)cc2Cl)C(=O)O)c1` (stereo partly drawn) [Example 57], for which the pEC50 is 8.28. As for `CP(=O)(/C=C/c1cc(Cl)c(C(=O)N[C@@H](Cc2cccc(S(C)(=O)=O)c2)C(=O)O)c(Cl)c1)c1cccc(O)c1` (stereo partly drawn) [Example 58], the pEC50 is 8.72.

Broadly, the pEC50 is −log10 of the EC50, conventionally taken in molar units.
